Assay [1] has as its target T1, kappa opioid receptor (KOR) (Homo sapiens, UniProt P41145).
T1 construct: host or cells: U2OS (Tango OPRK1-bla U2OS)
The assay can be described thus: OPRKappa 1 Tango B-Arrestin Assay, antagonist mode (Tango OPRK1-bla U2OS cells, U50488 EC80 challenge). It is filed as cell-based. As to conditions: for Selectivity (MOR/KOR): Kappa selectivity, MOR IC50 / KOR IC50; for IC50: antagonist mode, Tango OPRK1-bla U2OS cells, 6 nM U50488 challenge. An excerpt: OPRKappa 1 Tango B-Arrestin Assay Protocol-Antagonist Mode. […] The assay uses Tango OPRK1-bla U2OS cells which express OPRK1 linked to a GAL4-VP16 transcription factor via a TEV protease site. The cells also express a β-arrestin/TEV protease fusion protein and a β-lactamase (BLA) reporter gene under the control of a UAS response element. Stimulation of the OPRK1 receptor by agonist causes migration of the β-arrestin fusion protein to the GPCR, and through proteolysis liberates GAL4-VP16 from the receptor. The liberated VP16-GAL4 migrates to the nucleus, where it induces transcription of the BLA gene. BLA expression is monitored by measuring fluorescence resonance energy transfer (FRET) of a cleavable, fluorogenic, cell-permeable BLA substrate. As designed, test compounds that are OPRK1 antagonists inhibit agonist activation and migration of the fusion protein, thus preventing proteolysis of GAL4-VP16 and BLA transcription, leading to no increase in well FRET. Compounds were tested in quadruplicate using a 10-point, 1:3 dilution series starting at a nominal concentration of 10 micromolar.
The Tango OPRK1-U20S Dividing cell line was routinely cultured in 150 mm dishes at 37C, 5% CO2 and 95% relative humidity (RH).
On Day 1 of the assay, 16,000 cells in 10 μL of assay media (DMEM-Glutamax—with Sodium Pyruvate, 10% fetal bovine serum stripped with charcoal-dextran (CDS), 25 mM HEPES, 0.1 mM non-essential amino acids, antibiotic mix (penicillin streptomycin)) were seeded into each well of a 384 Greiner 788092 black low profile, clear bottom, low volume plate, and incubated 16-24 hours at 37° C., 5% CO2 and 95% (RH).
On Day 2, 50 nL of test compound in DMSO was added to the appropriate wells and plates were incubated for 30 min at 37° C. 5% CO2 and 95% (RH). Next was added 0.65 μL of commercially available U50488 OPRK1 agonist or DMSO in assay media: this EC80 Challenge consists of 0.6 μL of 111 nM U50488 to yield a final assay concentration of 6 nM). After incubation for 4 hours at 37° C., 5% CO2 and 95% (RH), 2.5 μL of LiveBLazer™FRET B/G (CCF4-AM) Mix (Soln.'s A,B,C,&D) was added to each well and incubated at room temperature in the dark for 2 hours. Well fluorescence was measured on Perkin Elmer's Envision using an Excitation filter 409 nm, Emission filters at 460 nm and […], bottom read.
(§1) The Percent Inhibition was calculated from the median ratio as follows:
• Tango™OPRK1-bla U20S Cells (Invitrogen K1576) • McCoy's 5A Medium, (Invitrogen 16600-082) • Dialyzed Fetal Bovine Serum, (Invitrogen 26400-036) • Non Essential Amino Acids 100× (Invitrogen part 11140-050) • HEPES (pH 7.3) 1M, (Invitrogen 15630-080) • Sodium Pyruvate 100× (Invitrogen 11360-070) • Penicillin Streptomycin, (Invitrogen 15640) • Trypsin 0.25% EDTA (Invitrogen 25200056) • DPBS without Calcium/Magnesium (Invitrogen 14190-136) • DMEM, High Glucose, GlutaMAX (Invitrogen 10569-010) • Fetal Bovine Serum, Charcoal Stripped (Invitrogen 12676-011) • DMSO Dry (Sigma D2650) • U50488 OPRK1 Agonist MW410.29 (Tocris 67198-19-0) • GNTI dihydrochloride OPRK1 Antagonist MW571.5 (Tocris 1282) • Nor-Binaltorphimine dihydrochloridc MW770.75 (Tocris 0347)
LiveBLAzere™-FRET/BG Loading Mix: (Invitrogen K1030 (5 mg)), composed of Solutions A, B, C, and D: • Solution A (6 μL): LiveBLAzer™-FRET/BG Substrate (CCF4-AM) • Solution B (60 μL) • Solution C (904 μL) • Solution C (must add 250 μl of 1N NaOH to 45 mL of Solution C prior to use) • Solution D (30 μL) [Probinicid] (Sigma P8161) make 200 mM stock in NaOH—H2O.

Another assay has as its target T2, mu opioid receptor (MOR) (Homo sapiens, UniProt P35372).
T2 construct: host or cells: U2OS (Discover X OPRMu1-U2OS, PathHunter)
Description: OPRMu1 Discover X β-arrestin Assay, antagonist mode (U2OS cells, DAMGO EC80 challenge). Format: cell-based.
Source text: OPRMu1 Discover X—β-arrestin Assay—Antagonist Mode. […] This assay evaluates the OPRMu1 activation in membrane recruitment of β-arrestin. In addition, the assay evaluates GPCR-β-arrestin proximity using low affinity fragment complementation of beta-galactosidase (beta-gal). The assay employs U20S cells, which express OPRMu1 fused to the complementary beta-gal fragment (enzyme acceptor). As designed, compounds that act as antagonists will prevent receptor activation resulting in reduced well luminescence. Compounds were tested in quadruplicate using a 10-point, 1:3 dilution series starting at a nominal concentration of 10 micromolar.
The Discover X OPRMu1-U20S cell line was cultured in 150 mm dishes at 37° C., 5% CO2 and 95% relative humidity (RH).
On Day 1 of the assay, 5000 cells in 20 μL of assay buffer (Discover X's Cell Plating Reagent 5) were seeded into each well of a 384 Corning 3570 standard white plate, and incubated 16-24 hours at 37° C., 5% CO2 and 95% RH.
On Day 2, 100 nL of test compound in DMSO were added to the appropriate wells and the plates were then incubated for 30 min at 37° C. 5% CO2 and 95% RH. Next, 2.2 μL of DAMGO OPRMu1 agonist (commercially available) or DMSO in assay media. (The EC80 Challenge consists of 1.8 μL of 3.7 μM DAMGO, 0.4 μL of Assay Buffer, with a final assay concentration of 303 nM). After incubation for 3 hours at 37° C. 5% CO2, and 95% RH, 10 μL of Path Hunter Detection Mix was added to each well, and the plate was then incubated at room temperature in the dark for 1 hour. Well luminescence was measured on Perkin Elmer's Envision.
as §1
• DMEM Medium, (Invitrogen 11965) • F12 Medium, (Invitrogen 11765) • Heat Inactivated Fetal Bovine Serum, (Invitrogen 10082147) • Non Essential Amino Acids 100× (Invitrogen 11140-050) • HEPES (pH 7.3) 1M, (Invitrogen 15630-080) • Sodium Pyruvate 100× (Invitrogen 11360-070) • Penicillin Streptomycin, (Invitrogen 15640) • Trypsin 0.25% EDTA (Invitrogen 25200056) • DPBS without Calcium/Magnesium (Invitrogen 14190-136) • DMSO Dry (Sigma D2650) • DAMGO OPRMu1 Agonist MW513.19 (Sigma E7384-5MG) • B-Funaltrexamine Hydrochloride OPRM1 Antagonist MW (SIGMA 0003-2MG) • PathHunter Cell Plating 5 Reagent (Discover X 93-0563R5A) • Corning 3750 Standard 384 well white plate with lid.
PathHunter Detection Mix (DiscoverX 93-0001): 1 part Galacton Star/5 parts Emerald II/19 parts PH Cell Assay Buffer.

Where only a bound is given, the exact number is not on record here.

T1 sequence (P41145 whole entry): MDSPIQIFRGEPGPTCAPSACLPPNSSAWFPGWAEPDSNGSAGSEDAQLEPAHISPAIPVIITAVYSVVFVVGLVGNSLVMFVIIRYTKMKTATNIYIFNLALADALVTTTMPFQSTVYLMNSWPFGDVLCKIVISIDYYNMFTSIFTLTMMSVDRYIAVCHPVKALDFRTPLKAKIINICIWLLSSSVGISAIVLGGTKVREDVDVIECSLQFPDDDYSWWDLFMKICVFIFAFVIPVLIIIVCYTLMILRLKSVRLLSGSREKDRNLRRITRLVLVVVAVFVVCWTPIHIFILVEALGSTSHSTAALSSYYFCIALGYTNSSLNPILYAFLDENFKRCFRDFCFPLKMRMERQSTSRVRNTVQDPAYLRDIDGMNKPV
T2 sequence (P35372 whole entry): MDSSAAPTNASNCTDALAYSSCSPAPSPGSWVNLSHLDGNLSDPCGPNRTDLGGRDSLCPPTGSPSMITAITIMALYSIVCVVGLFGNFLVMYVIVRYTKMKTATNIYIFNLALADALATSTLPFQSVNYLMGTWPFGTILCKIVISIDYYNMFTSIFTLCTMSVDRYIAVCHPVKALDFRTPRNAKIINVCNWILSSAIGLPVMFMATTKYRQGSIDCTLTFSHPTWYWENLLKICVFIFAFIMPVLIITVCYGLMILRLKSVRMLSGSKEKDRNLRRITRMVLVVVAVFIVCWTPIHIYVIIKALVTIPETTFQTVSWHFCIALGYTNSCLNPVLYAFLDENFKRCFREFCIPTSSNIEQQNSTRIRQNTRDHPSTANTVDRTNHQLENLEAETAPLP

`CCc1cc(F)c2nc(N3CCN(/C(=N\C#N)NC4CCOCC4)C[C@H]3C)c(-c3ccn(C)n3)c(C)c2c1` [Compound 11, (R,E)-N′-cyano-4-(6-ethyl-8-fluoro-4-methyl-3-(1-methyl-1H-pyrazol-3-yl)quinolin-2-yl)-3-methyl-N-(tetrahydro-2H-pyran-4-yl)piperazine-1-carboximidamide]: in assay [1], the “Selectivity (MOR/KOR)” value is “++ (between 10- and 100-fold selectivity)”. The IC50 in assay [1] lay within 10 to 100 nM; on mu opioid receptor (MOR) it was 1 to 10 nM.

As for `CCc1cc(-c2cc[nH]n2)c2nc(N3CCNC[C@H]3C)c(-c3ccn(C)n3)c(C)c2c1` [Compound 12, (R)-6-ethyl-4-methyl-3-(1-methyl-1H-pyrazol-3-yl)-2-(2-methylpiperazin-1-yl)-8-(1H-pyrazol-3-yl)quinoline], the “Selectivity (MOR/KOR)” value in assay [1] is “+ (less than 10-fold selectivity)”. Moreover, the IC50 in assay [1] was at least 100 nM; against mu opioid receptor (MOR) it was above 1000 nM.

For the molecule `CCc1cc(F)c2nc(N3CCNC[C@H]3C)c(-c3ccn(C)n3)c(C)c2c1` [Compound 13, (R)-6-ethyl-8-fluoro-4-methyl-3-(1-methyl-1H-pyrazol-3-yl)-2-(2-methylpiperazin-1-yl)quinoline], in assay [1], the “Selectivity (MOR/KOR)” value was “++ (between 10- and 100-fold selectivity)”; the 50% inhibitory concentration (IC50) was at least 100 nM. In addition, the IC50 against mu opioid receptor (MOR) was above 1000 nM.

As for `CCc1cc(F)c2nc(N3CCC(N[C@@H]4CCOC[C@@H]4F)CC3)c(-c3cc(C)n(C)n3)c(C)c2c1` [Compound 14, 1-(3-(1,5-dimethyl-1H-pyrazol-3-yl)-6-ethyl-8-fluoro-4-methylquinolin-2-yl)-N-((3R,4R)-3-fluorotetrahydro-2H-pyran-4-yl)piperidin-4-amine], the “Selectivity (MOR/KOR)” value in assay [1] is given as “+++ (between 100- to 1000-fold selective)”. Besides, the IC50 in assay [1] lay in the range of 1 to 10 nM; against mu opioid receptor (MOR) it was 100 to 1000 nM.

As for `CCc1cc(-c2ccnn2C)c2nc(N3CC[C@@H](NC4CCOCC4)[C@@H](F)C3)c(-c3ccn(C)n3)c(C)c2c1` [Compound 15, (3S,4R)-1-(6-ethyl-4-methyl-3-(1-methyl-1H-pyrazol-3-yl)-8-(1-methyl-1H-pyrazol-5-yl)quinolin-2-yl)-3-fluoro-N-(tetrahydro-2H-pyran-4-yl)piperidin-4-amine], the “Selectivity (MOR/KOR)” value in assay [1] is “++ (between 10- and 100-fold selectivity)”. In addition, the IC50 lay in the range of 1 to 10 nM in assay [1] and 10 to 100 nM against mu opioid receptor (MOR).

For the molecule `CCc1cc(F)c2nc(N3CCC(N[C@H]4CCOC[C@@H]4O)CC3)c(-c3cc(C)n(C)n3)c(C)c2c1` [Compound 16, (3R,4S)-4-((1-(3-(1,5-dimethyl-1H-pyrazol-3-yl)-6-ethyl-8-fluoro-4-methylquinolin-2-yl)piperidin-4-yl)amino)tetrahydro-2H-pyran-3-ol], in assay [1], the “Selectivity (MOR/KOR)” value is “++ (between 10- and 100-fold selectivity)”; the IC50 was 1 to 10 nM. Also, the half-inhibitory concentration (IC50) against mu opioid receptor (MOR) was in the range of 100 to 1000 nM.

`CCc1cc(F)c2nc(N3CCC(N[C@@H]4CCOC[C@H]4O)CC3)c(-c3cc(C)n(C)n3)c(C)c2c1` [Compound 17, (3S,4R)-4-((1-(3-(1,5-dimethyl-1H-pyrazol-3-yl)-6-ethyl-8-fluoro-4-methylquinolin-2-yl)piperidin-4-yl)amino)tetrahydro-2H-pyran-3-ol]: in assay [1], the “Selectivity (MOR/KOR)” value was “++ (between 10- and 100-fold selectivity)”; the half-inhibitory concentration (IC50) lay in the range of 1 to 10 nM. The molecule further registered a concentration for half-maximal inhibition (IC50) against mu opioid receptor (MOR) of 100 to 1000 nM.

For `CCc1cc(F)c2nc(N3CCC(N[C@H]4CCOC4)CC3)c(-c3cc(C)n(C)n3)c(C)c2c1` [Compound 18, (S)-1-(3-(1,5-dimethyl-1H-pyrazol-3-yl)-6-ethyl-8-fluoro-4-methylquinolin-2-yl)-N-(tetrahydrofuran-3-yl)piperidin-4-amine], in assay [1], the “Selectivity (MOR/KOR)” value is “+++ (between 100- to 1000-fold selective)” and the IC50 was 1 to 10 nM. Also, the IC50 on mu opioid receptor (MOR) was above 1000 nM.

In the case of `CCc1cc(F)c2nc(N3CCC(NCC4(F)CC4)CC3)c(-c3cc(C)n(C)n3)c(C)c2c1` [Compound 19, 1-(3-(1,5-dimethyl-1H-pyrazol-3-yl)-6-ethyl-8-fluoro-4-methylquinolin-2-yl)-N-((1-fluorocyclopropyl)methyl)piperidin-4-amine], the “Selectivity (MOR/KOR)” value in assay [1] is reported as “+++ (between 100- to 1000-fold selective)”. Moreover, the IC50 is 1 to 10 nM in assay [1] and 100 to 1000 nM on mu opioid receptor (MOR).

As for `CCc1cc(-c2ccnn2C)c2nc(N3CCC(N[C@@H]4CCOC[C@@H]4F)CC3)c(-c3ccn(C)n3)c(C)c2c1` [Compound 20, 1-(6-ethyl-4-methyl-3-(1-methyl-1H-pyrazol-3-yl)-8-(1-methyl-1H-pyrazol-5-yl)quinolin-2-yl)-N-((3R,4R)-3-fluorotetrahydro-2H-pyran-4-yl)piperidin-4-amine], in assay [1], the “Selectivity (MOR/KOR)” value was “++ (between 10- and 100-fold selectivity)”; the IC50 was below 1 nM. The molecule also displayed an IC50 on mu opioid receptor (MOR) of 10 to 100 nM.

In the case of `CCc1cc(-c2ccnn2C)c2nc(N3CCC(N[C@H]4CCOC[C@H]4F)CC3)c(-c3ccn(C)n3)c(C)c2c1` [Compound 21, 1-(6-ethyl-4-methyl-3-(1-methyl-1H-pyrazol-3-yl)-8-(1-methyl-1H-pyrazol-5-yl)quinolin-2-yl)-N-((3S,4S)-3-fluorotetrahydro-2H-pyran-4-yl)piperidin-4-amine], in assay [1], the “Selectivity (MOR/KOR)” value was “++ (between 10- and 100-fold selectivity)”; the half-maximal inhibitory concentration (IC50) lay within 1 to 10 nM. For the same molecule, at mu opioid receptor (MOR), the concentration for half-maximal inhibition (IC50) was 10 to 100 nM.

One may read the IC50 as the concentration that inhibits the measured activity by half.
